A short description of experiment [1]: Fluorescence polarization-based biochemical high throughput dose response assay for activators of the Protein Kinase A-R1A (PKA-R1A) complex. [Related pubchem assays (depositor defined):AID504704, AID504707, AID504799, AID504800]. (In general: In fluorescence polarisation assays a small probe gives low polarisation when free and higher when bound to something large.)

Experiment [2] in a line: Fluorescence polarization-based biochemical high throughput dose response assay for activators of the Protein Kinase A-R2B (PKA-R2B) complex. [Related pubchem assays (depositor defined):AID504700, AID504704, AID504796, AID504797].
In experiment [3] the target is T1, Tyrosine-protein phosphatase non-receptor type 11 (Homo sapiens, UniProt Q06124).
T1 sequence (Q06124 whole entry): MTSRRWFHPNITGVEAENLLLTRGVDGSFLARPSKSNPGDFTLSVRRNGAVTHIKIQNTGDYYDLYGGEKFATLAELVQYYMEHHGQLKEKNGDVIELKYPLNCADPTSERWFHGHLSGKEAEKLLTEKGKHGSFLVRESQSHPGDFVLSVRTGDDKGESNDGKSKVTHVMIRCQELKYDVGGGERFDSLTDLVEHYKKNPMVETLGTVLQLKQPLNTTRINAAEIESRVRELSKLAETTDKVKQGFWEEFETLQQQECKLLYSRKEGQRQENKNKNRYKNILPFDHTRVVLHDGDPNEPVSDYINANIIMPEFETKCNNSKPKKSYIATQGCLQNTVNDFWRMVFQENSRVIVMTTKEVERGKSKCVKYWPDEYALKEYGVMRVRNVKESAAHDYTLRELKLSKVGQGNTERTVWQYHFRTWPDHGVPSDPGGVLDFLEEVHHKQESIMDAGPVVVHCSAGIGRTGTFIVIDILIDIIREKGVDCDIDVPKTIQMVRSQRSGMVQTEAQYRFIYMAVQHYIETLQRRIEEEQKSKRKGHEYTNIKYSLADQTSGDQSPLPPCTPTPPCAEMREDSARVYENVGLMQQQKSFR
The experiment in a line: SHP2 phosphatase inhibition, dose response, selectivity assay for STEP inhibitor project, biochemical (AID 602367). The format is functional. As to conditions: read-out: IC50_Mean.

In experiment [4] the target is T2, Tyrosine-protein phosphatase non-receptor type 22 (Homo sapiens, UniProt Q9Y2R2).
T2 sequence (Q9Y2R2 whole entry): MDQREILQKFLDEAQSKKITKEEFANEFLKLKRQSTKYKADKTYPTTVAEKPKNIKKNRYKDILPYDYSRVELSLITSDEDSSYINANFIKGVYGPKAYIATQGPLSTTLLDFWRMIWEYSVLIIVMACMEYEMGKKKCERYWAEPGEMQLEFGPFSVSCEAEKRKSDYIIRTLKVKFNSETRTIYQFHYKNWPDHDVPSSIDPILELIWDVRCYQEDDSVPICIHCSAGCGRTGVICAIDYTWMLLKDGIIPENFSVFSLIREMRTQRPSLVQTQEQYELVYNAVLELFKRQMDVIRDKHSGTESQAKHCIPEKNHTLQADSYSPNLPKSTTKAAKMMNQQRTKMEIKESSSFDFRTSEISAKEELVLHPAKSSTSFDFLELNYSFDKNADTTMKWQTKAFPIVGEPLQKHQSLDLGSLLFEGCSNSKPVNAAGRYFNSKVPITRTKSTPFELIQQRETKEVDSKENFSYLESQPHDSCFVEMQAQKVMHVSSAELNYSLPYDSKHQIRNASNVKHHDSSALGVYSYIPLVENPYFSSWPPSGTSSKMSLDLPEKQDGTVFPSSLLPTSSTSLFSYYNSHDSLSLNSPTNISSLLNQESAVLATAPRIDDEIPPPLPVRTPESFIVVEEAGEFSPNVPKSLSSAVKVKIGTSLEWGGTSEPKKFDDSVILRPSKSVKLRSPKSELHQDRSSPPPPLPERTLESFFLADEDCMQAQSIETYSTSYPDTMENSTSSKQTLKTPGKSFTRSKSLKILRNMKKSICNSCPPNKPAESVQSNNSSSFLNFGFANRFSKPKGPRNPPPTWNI
The experiment in a line: PTPN22 phosphatase inhibition, dose response, selectivity assay for STEP inhibitor project, biochemical (AID 624241). The format is functional.

Experiment [5] has as its target Glucose-6-phosphate 1-dehydrogenase (Homo sapiens, UniProt P11413). The experiment in a line: human G6PD enzyme inhibitors, dose response, selectivity assay for P. falciparum G6PD inhibitor project, biochemical, fluorescence (AID 504792). It is filed as functional.
In experiment [6] the target is T3, Dual specificity protein phosphatase 6 (Rattus norvegicus, UniProt Q64346).
T3 sequence (Q64346 whole entry): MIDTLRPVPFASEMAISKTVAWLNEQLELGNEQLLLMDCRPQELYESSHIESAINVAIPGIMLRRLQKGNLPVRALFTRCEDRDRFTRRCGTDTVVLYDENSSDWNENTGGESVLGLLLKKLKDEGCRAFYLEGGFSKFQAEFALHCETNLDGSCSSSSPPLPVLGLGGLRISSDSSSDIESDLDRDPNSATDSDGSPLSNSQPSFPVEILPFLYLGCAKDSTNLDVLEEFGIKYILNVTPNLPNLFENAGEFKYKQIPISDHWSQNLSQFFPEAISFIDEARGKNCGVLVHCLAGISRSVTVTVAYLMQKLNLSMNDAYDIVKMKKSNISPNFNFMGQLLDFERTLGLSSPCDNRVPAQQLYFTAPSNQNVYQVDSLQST
The format is functional.

In experiment [7] the target is T4, Tyrosine-protein phosphatase non-receptor type 7 (Homo sapiens, UniProt P35236).
T4 sequence (P35236 whole entry): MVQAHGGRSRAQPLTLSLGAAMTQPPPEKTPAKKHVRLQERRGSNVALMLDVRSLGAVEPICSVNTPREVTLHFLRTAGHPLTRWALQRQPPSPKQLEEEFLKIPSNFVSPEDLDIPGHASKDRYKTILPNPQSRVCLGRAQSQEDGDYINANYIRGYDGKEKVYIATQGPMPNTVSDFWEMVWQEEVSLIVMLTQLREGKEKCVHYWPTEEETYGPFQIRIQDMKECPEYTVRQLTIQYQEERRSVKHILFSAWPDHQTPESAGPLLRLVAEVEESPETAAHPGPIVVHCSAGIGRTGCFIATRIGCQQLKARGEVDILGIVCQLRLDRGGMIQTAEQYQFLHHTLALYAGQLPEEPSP
Nature of the experiment: SAR analysis of chemical inhibitors of HePTP using a Fluorescent assay - Set 2. [Related pubchem assays (depositor defined):AID1059, AID1077, AID1661, AID2085, AID521]. It is filed as functional.

In experiment [8] the target is T5, Dual specificity protein phosphatase 3 (Homo sapiens, UniProt P51452). The experiment in a line: SAR VHR1 Fluorescent Assay for In Vitro dose response studies. [Related pubchem assays (depositor defined):AID1654, AID1661, AID1878, AID1992, AID2004, AID2070, AID2085]. It is filed as functional.
T5 sequence (P51452 whole entry): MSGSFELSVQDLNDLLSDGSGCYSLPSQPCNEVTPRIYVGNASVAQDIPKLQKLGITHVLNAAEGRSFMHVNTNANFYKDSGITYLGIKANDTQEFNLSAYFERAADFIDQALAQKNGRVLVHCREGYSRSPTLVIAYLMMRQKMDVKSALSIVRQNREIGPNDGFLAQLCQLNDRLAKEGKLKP
Experiment [9] addresses T5, Dual specificity protein phosphatase 3. The experiment in a line: VHR phosphatase inhibition, dose response, selectivity assay for STEP inhibitor project, biochemical (AID 602374). It is filed as functional. As to conditions: read-out: IC50_Mean.
For experiment [10] the target is unchanged. Nature of the experiment: VHR1 phosphatase inhibitors, biochemical (AID 1878).
Experiment [11] shares this target. Nature of the experiment: VHR1 phosphatase inhibitors, primary screen, biochemical, absorbance, uHTS (AID 1654).
The target is the same in experiment [12]. Nature of the experiment: SAR VHR1 Fluorescent Assay for In Vitro dose response studies Set 2. [Related pubchem assays (depositor defined):AID1654, AID1661, AID1878]. The format is functional.
The target in experiment [13] is T3, Dual specificity protein phosphatase 6. The experiment in a line: MKP-3 phosphatase inhibitors, primary screen, biochemical, rat enzyme, in vitro (AID 425).
The target in experiment [14] is T6, Tyrosine-protein phosphatase non-receptor type 5 (Homo sapiens, UniProt P54829).
T6 sequence (P54829 whole entry): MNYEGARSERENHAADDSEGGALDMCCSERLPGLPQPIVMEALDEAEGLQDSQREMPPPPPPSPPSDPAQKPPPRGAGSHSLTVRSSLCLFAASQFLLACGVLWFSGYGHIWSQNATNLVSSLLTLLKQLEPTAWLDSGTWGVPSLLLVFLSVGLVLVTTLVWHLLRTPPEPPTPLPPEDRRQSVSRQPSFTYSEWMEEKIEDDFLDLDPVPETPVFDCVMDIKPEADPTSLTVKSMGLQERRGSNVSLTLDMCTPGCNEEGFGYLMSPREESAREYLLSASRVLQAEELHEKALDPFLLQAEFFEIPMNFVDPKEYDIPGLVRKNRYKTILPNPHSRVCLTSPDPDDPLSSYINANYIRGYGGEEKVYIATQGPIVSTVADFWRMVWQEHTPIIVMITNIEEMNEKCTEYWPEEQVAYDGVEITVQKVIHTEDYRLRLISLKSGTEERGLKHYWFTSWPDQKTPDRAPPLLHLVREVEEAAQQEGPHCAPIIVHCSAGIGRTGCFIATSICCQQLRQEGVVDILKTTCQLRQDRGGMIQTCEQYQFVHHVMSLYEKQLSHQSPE
The experiment in a line: STEP phosphatase inhibitors, confirmation, biochemical, fluorescence intensity, uHTS hits (AID 602372). Conditions: read-out: IC50_Mean. It is filed as functional.

Experiment [15] has as its target T4, Tyrosine-protein phosphatase non-receptor type 7. Nature of the experiment: redox-dependent HePTP inhibition, mechanism study, biochemical, fluorescence (AID 2068). The format is functional.
Experiment [16] has as its target T3, Dual specificity protein phosphatase 6. Nature of the experiment: SAR analysis of inhibitors of MKP-3 - Set 2. [Related pubchem assays (depositor defined):AID1055, AID1661, AID425, AID553, AID566]. The format is functional.
The target of experiment [17] is T5, Dual specificity protein phosphatase 3. The experiment in a line: SAR VHR1 absorbance Assay for In Vitro dose response studies. [Related pubchem assays (depositor defined):AID1654, AID1661, AID1878, AID1992, AID2004].
Experiment [18] in a line: Luminescence Cell-Based Dose Retest to Confirm Inhibitors of Cancer Stem Cells. [Related pubchem assays (depositor defined):AID2717, AID2721]. It is filed as functional. Conditions: Homo sapiens.
The nature of experiment [19]: cytotoxicity in HMLE control line with eGFP shRNA, dose response, counter-screen for HMLE_sh_ECad selective toxicity project, cell-based, HMLE_sh_eGFP, luminescence (AID 463074).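 Also: HMLE human mammary epithelial cells expressing control shRNA against eGFP.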 It is filed as functional, Homo sapiens. (A counterscreen serves to expose hits that act by an unwanted route or on another target.)
The test system of experiment [20] is Escherichia coli. Nature of the experiment: microbe, parasite or virus in culture.
Experiment [21] has as its system Escherichia coli. Nature of the experiment: microbe, parasite or virus in culture. This is another data set of the same source.
Experiment [22] concerns the target T5, Dual specificity protein phosphatase 3. Nature of the experiment: SAR VHR1 Fluorescent Assay for In Vitro dose response studies Set 3. [Related pubchem assays (depositor defined):AID1654, AID1661, AID1878]. The format is functional.

Each structure is given as a SMILES string. Calls of active or inactive are those of the source.

For orientation: EC50 means the concentration needed to bring the measured effect to its halfway point. Broadly, the AC50 is the concentration giving half of the maximal activity seen.

Sequence of Glucose-6-phosphate 1-dehydrogenase (P11413 whole entry): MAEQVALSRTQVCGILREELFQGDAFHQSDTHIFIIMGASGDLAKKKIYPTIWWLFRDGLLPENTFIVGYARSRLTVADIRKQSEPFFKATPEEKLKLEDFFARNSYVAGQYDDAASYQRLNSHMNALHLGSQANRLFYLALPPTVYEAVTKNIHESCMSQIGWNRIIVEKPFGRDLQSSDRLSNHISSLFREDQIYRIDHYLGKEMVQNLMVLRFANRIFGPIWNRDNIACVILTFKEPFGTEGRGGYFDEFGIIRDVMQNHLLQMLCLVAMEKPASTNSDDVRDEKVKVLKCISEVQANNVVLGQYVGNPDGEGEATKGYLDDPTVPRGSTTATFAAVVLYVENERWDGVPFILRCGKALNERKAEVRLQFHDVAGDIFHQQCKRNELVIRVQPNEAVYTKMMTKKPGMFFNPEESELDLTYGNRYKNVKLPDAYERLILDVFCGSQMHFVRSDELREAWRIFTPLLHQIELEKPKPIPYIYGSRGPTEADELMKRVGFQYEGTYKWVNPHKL

With `Nc1ncnc2c1nc(Br)n2[C@@H]1O[C@@H]2COP(=O)(O)O[C@H]2[C@H]1O`, the EC50 in experiment [1] is 0.0344 µM (active); in experiment [2] it was 0.0511 µM (active).

`COc1ccc(NC(=S)N(CCC(C)C)C2CCN(C(C)C)CC2)cc1Cl`: the IC50 in experiment [3] is 0.676 µM (active); in experiment [4], 21 µM (inactive); in experiment [5], > 80 µM (inactive); in experiment [6], > 99 µM (inactive); in experiment [7], 0.662 µM (active); in [8], > 99 µM (inactive). Further, the IC50 in experiment [9] is 0.271 µM (active); in experiment [10], 4.01 µM (active); in [11], 2.09 µM (active); in experiment [12] it was 0.216 µM (active); in [13], > 158 µM (not active); in experiment [14], 3.86 µM (active). The IC50 in experiment [15] is < 0.195 µM (active); in [16] it was > 100 µM (inactive); in [17], 1.26 µM (active).

With `COc1ccccc1N=C(S)N=Nc1c(O)[nH]c2ccc(Br)cc12`, the values for the AC50 in [18] and in [19] were 0.739 µM (active) and 31.4 µM (active), respectively.

In the case of `Cc1ccccc1C(=O)N1CCC(C(=O)NC(C)c2ccc(-n3ccnc3)cc2)CC1` (configuration not stated), the AC50 in the experiment with Escherichia coli [20] was 69.2 µM (active); with Escherichia coli [21], 24.5 µM (active).

On to `O=C(Nc1ccc(-c2nc3ccccc3s2)cc1)c1cc(-n2cnnc2)ccc1Cl`, for which the IC50 in experiment [22] is 12.1 µM (active).

These data come from ChEMBL document CHEMBL1201862, “PubChem BioAssay data set” (2004).
